Assay results as given in US10865387B2, “Methods of obtaining pancreatic endocrine cells” (The University Court of the University of Aberdeen, priority 2014, dated 2020).

How the values were obtained:
[1] = tested on: human exocrine enriched fraction (EEF); assay: RT-qPCR of hormone and transcription factor mRNA in reprogrammed exocrine cells; type: cell-based
Protocol: After 48 h the cells were incubated for another 72 h in serum free medium (SFM) prepared with RPMI 1640, insulin-transferrin-selenium (Gibco) and 1% bovine serum albumin (Sigma), supplemented with 10 μM SB431542, 2 μM Y27632, 1 μM 5-Aza-2′deoxycytidine and 10 mM sodium butyrate (all from Sigma). On the next day the cells were incubated for 4 h with the adenoviruses encoding pancreatic transcription factors. On the following day the medium was changed for SFM supplemented with 1 nM betacellulin (R&D systems, Abingdon, UK), 10 nM exendin-4 and 10 mM nicotinamide (both from Sigma). The medium was changed every two days for another 6 days before harvesting.
Recombinant adenoviruses encoding the mouse sequences of PDX1, MAFA, NGN3 and PAX4 (Swales et al., 2012) were prepared using the Ad-Easy™ system (Agilent Technologies, Edinburgh, UK). The adenoviruses containing PDX1 and NGN3 also expressed GFP through a downstream CMV promoter. Viral transduction was performed in SFM for 4 h at a multiplicity of infection (MOI) of 100 for each virus.
QRT/PCR was performed as previously described (Lima et al., 2012. Data were analysed using the 2^−ΔΔCT method. Statistical analysis was performed using PRISM software and the student's t-test or one-way ANOVA followed by the Dunnet's post-hoc test, as appropriate. The list of TaqMan probes are listed in Table 1:
Knockdown of Arx in transdifferentiating cells was performed by transfection with a pool of specific targeting small inhibitory RNAs, or scrambled controls (Dharmacon, Loughborough, UK). 100 nM siRNA was transfected on day 6 of the transdifferentiation protocol using Dharmafect 1 (Dharmacon), according to the manufacturer's instructions.
EEF cells were plated directly from the low purity fractions obtained following islet isolation. EEF cells were cultured as a monolayer for two days and then treated with SB, Y2, Aza and NaBu for 3 days. […]

[2] = tested on: human exocrine enriched fraction (EEF); assay: Insulin, C-peptide and glucagon content of cell lysates by ELISA; type: cell-based; settings: reprogrammed (siARX) cells with ZnCl2 10 μM; FIG. 15
From the text: FIG. 10. ARX inhibition enhances beta cell maturation and decreases alpha cell differentiation. (A) C-peptide release by untreated (N/A), transdifferentiated cells in the absence of siARX (REP), siARX transdifferentiated cells (siARX) and in the absence of PAX4 (siARX-PAX4). C-peptide was detected from the culture medium by a specific human C-peptide ELISA. Data are representative of triplicate experiments. (B) Insulin, C-peptide and Proinsulin content of untreated, transdifferentiated cells in the absence of siARX (REP), siARX transdifferentiated cells (siARX) and human islets. The content of each peptide was detected by specific human ELISAs after cell lysis and normalised to the total protein content. Data are representative of triplicate experiments. (C) Glucagon content of untreated, transdifferentiated cells in the absence of siARX (REP), siARX transdifferentiated cells (siARX) and human islets. Glucagon was detected by a specific human ELISA after cell lysis and normalised to the total protein content. Data are representative of triplicate experiments. […]
[…] were measured using a human glucagon Quantikine ELISA kit (R&D Systems, Abingdon, UK), a human C-peptide ELISA kit (Millipore, Livingston, UK), a human prosinsulin ELISA kit or a human insulin ELISA kit (both from Mercodia, Uppsala, Sweden). […]

[3] = cells reprogrammed (siARX) with ZnCl2 10 μM, FIG. 14

Row | Molecule | efficiency of reprogramming (relative expression of insulin) on extracellular matrix ([1]; PDX1/MAFA/NGN3/PAX4 protocol, compared with fibronectin, poly-lysine, collagen type I and IV, FIG. 4) | insulin (C-peptide) protein content [2] | insulin gene expression [1, 3] | mRNA encoding PAX4 [1, 3]
1 | laminin | improves the efficiency of reprogramming | – | – | –
2 | [Cl-].[Cl-].[Zn+2] [ZnCl2] | – | stimulatory effect | significant effect | increased levels
